Assay results from patent US20100178260A1, “COMPOSITION COMPRISING A RETINOID, AN ADENOSINE-BASED NONPHOSPHATED COMPOUND, AND A SEMICRYSTALLINE POLYMER” (L'OREAL, priority 2009, published 2010).

Tested on: Realskin reconstructed epidermis (filaggrin, marker for epidermal differentiation)
Assay: Epidermal differentiation (filaggrin immunolabelling) in Realskin reconstructed epidermis model
Type: cell-based
Settings: incubated from D 20, analysed from D 27
Procedure: The effects of the combination are evaluated with respect to epidermal differentiation and proliferation in the […] reconstructed epidermis model. […] The epidermises are analysed histologically and by filaggrin (marker for epidermal differentiation) immunolabelling starting from D 27. Filaggrin, which is a late differentiation marker, is a product of degradation of profilaggrin, a high MW phosphoprotein contained in the keratohyalin granules. At the moment the keratinocyte transforms into a corneocyte, the keratohyalin granules disaggregate, and the profillagrin undergoes sequential proteolysis which releases oligomers and then monomers of filaggrin. The results arc illustrated in FIG. 1.

`Nc1ncnc2c1ncn2[C@@H]1O[C@H](CO)[C@@H](O)[C@H]1O` [adenosine] was tested, and the “differentiation (filaggrin immunolabelling)” value (Adenosine at 10 μM) was “+11%”.
`CC1=C(/C=C/C(C)=C/C=C/C(C)=C/CO)C(C)(C)CCC1` [retinol] was tested, and the “delay in differentiation (filaggrin immunolabelling)” value (Retinol at 250 μM) was −36%.
